Laboratory results from EP3070175A1, “TEST FOR DETERMINING SUSCEPTIBILITY OR RESISTANCE TO POLYMYXINS IN ENTEROBACTERIACEAE” (Université de Fribourg, priority 2015, dated 2016).

Experiments:
K. pneumoniae = assay: MIC determination, broth microdilution in Cation-Adjusted Mueller-Hinton broth (CLSI); type: cell-based, Klebsiella pneumoniae; conditions: for Colistin resistance: EUCAST breakpoints
Experimental: (§1) Determination of MIC values were performed using the reference technique (broth microdilution in Cation-Adjusted Mueller-Hinton broth) according to the CLSI guidelines. Polymyxin B and colistin (Sigma-Aldrich, Saint-Louis) were tested over a range dilution from 0.12 to 128 µg/ml and 5.10^5 CFU/ml of bacteria in each well was used. Following the EUCAST breakpoints (http://www.eucast.org/), strains with a colistin MICs of ≤ 2 µg/ml were categorized as susceptible, although those with MICs of > 2 µg/ml were resistant.
(§2) All experiments were repeated in triplicate.

E. coli = assay: as above; type: cell-based, Escherichia coli; conditions: for Colistin resistance: EUCAST breakpoints
Experimental: as §1, §2

P. mirabilis = assay: Polymyxin test: colorimetric detection of growth (glucose metabolization, phenol red) in presence of colistin sulphate; type: cell-based, Proteus mirabilis; design: key: +, yellow; -, orange; conditions: strain Pmir; colistin sulphate 3.75 mg/L final; visual colour change, up to 4 h at 37°C
Experimental: Each inoculum was prepared by mixing 1 öse (10 µl) of a fresh culture of the tested bacteria in 5 ml of sterile NaCl 0.85% (at a density of 3 Mac Farland, i.e. about 10^9 CFU/ml).
250 ml of reactive medium was prepared by mixing the compounds hereafter: • a broth powder of a non selective growth medium for bacteria, the Cation-Adjusted Mueller-Hinton broth (MHB-CA) : 6.25 g • a colour indicator, the phenol red : 0.0125 g • sterile distilled water 225 ml • sterile D (+)-glucose (10 %) anhydrous (sterilization by filtration) : 25 ml
The pH of the final reactive medium was adjusted to 6.6 and 6.7 with HCl 1M.
Colistin or polymyxin B was added or not at the concentration of 5 mg/L in the reactive medium. Standard colistin sulphate and polymyxin B were from Sigma Aldrich (Saint-Louis, France). Those antibiotic molecule powders were kept at 4°C before their use, whereas polymyxin dilutions were kept at -20°C.
For each strain, two wells of a plastic sterile plate with 96 shaped wells were inoculated in parallel with and without polymyxin (colistin sulphate or polymyxin B) in order to compare their colour change.
Plastic sterile plates were from Sarstedt (Nümbrecht, Germany). The tray may be prepared as follows : • 1. […]
The results of the tests were recorded at 10 min (checking for no spontaneous colour change in the well) and then every hour for a maximum of 4 hours by visual inspection. […]

P. stuartii = assay: MIC determination, broth microdilution in Cation-Adjusted Mueller-Hinton broth (CLSI); type: cell-based; conditions: strain Pstu
Experimental: as §1, §2

H. alvei = assay: as above; type: cell-based; conditions: strain ER
Experimental: as §1, §2

M. morganii = assay: as above; type: cell-based; conditions: strain Mmor
Experimental: as §1, §2

E. aerogenes = assay: as above; type: cell-based; conditions: strain 6 FR
Experimental: as §1, §2

C. freundii = assay: as above; type: cell-based; conditions: for Colistin resistance: EUCAST breakpoints
Experimental: as §1, §2

K. oxytoca = assay: as above; type: cell-based; conditions: strain C24
Experimental: as §1, §2

E. cloacae = assay: as above; type: cell-based; conditions: for Colistin resistance: EUCAST breakpoints
Experimental: as §1, §2

S. marcescens = assay: as above; type: cell-based, Serratia marcescens; conditions: strain Smar
Experimental: as §1, §2

## colistin sulphate
K. pneumoniae; strain 1 FR
  Colistin MIC: 0.12 µg/mL
  Colistin resistance: - (strains with a colistin MICs of ≤ 2 µg/ml were categorized as susceptible)
K. pneumoniae; strain 2 FR
  Colistin MIC: 0.12 µg/mL
  Colistin resistance: - (strains with a colistin MICs of ≤ 2 µg/ml were categorized as susceptible)
K. pneumoniae; strain 4 FR
  Colistin MIC: 0.25 µg/mL
  Colistin resistance: - (strains with a colistin MICs of ≤ 2 µg/ml were categorized as susceptible)
K. pneumoniae; strain 9 FR
  Colistin MIC: 0.5 µg/mL
  Colistin resistance: - (strains with a colistin MICs of ≤ 2 µg/ml were categorized as susceptible)
K. pneumoniae; strain 11 FR
  Colistin resistance: + (those with MICs of > 2 µg/ml were resistant)
K. pneumoniae; strain 11 FR, resistance mechanism Unknown
  Colistin MIC: 32 µg/mL
K. pneumoniae; strain 75b
  Colistin resistance: + (those with MICs of > 2 µg/ml were resistant)
K. pneumoniae; strain 75b, PhoP D191Y
  Colistin MIC: 128 µg/mL
K. pneumoniae; strain AF1b
  Colistin resistance: + (those with MICs of > 2 µg/ml were resistant)
K. pneumoniae; strain AF1b, PmrB T157P
  Colistin MIC: 16 µg/mL
K. pneumoniae; strain C23
  Colistin resistance: + (those with MICs of > 2 µg/ml were resistant)
K. pneumoniae; strain C23, ΔmgrB
  Colistin MIC: 128 µg/mL
K. pneumoniae; strain C25
  Colistin resistance: + (those with MICs of > 2 µg/ml were resistant)
K. pneumoniae; strain C25, PmrA G53C
  Colistin MIC: 64 µg/mL
K. pneumoniae; strain C26
  Colistin resistance: + (those with MICs of > 2 µg/ml were resistant)
K. pneumoniae; strain C26, mgrB gene truncated with IS
  Colistin MIC: 128 µg/mL
K. pneumoniae; strain C27
  Colistin resistance: + (those with MICs of > 2 µg/ml were resistant)
K. pneumoniae; strain C27, mgrB Δnt23/33 (frameshift)
  Colistin MIC: >128 µg/mL
K. pneumoniae; strain C112
  Colistin MIC: 0.12 µg/mL
  Colistin resistance: - (strains with a colistin MICs of ≤ 2 µg/ml were categorized as susceptible)
K. pneumoniae; strain C115
  Colistin MIC: 0.12 µg/mL
  Colistin resistance: - (strains with a colistin MICs of ≤ 2 µg/ml were categorized as susceptible)
K. pneumoniae; strain C130
  Colistin MIC: 0.12 µg/mL
  Colistin resistance: - (strains with a colistin MICs of ≤ 2 µg/ml were categorized as susceptible)
K. pneumoniae; strain C132
  Colistin MIC: 0.12 µg/mL
  Colistin resistance: - (strains with a colistin MICs of ≤ 2 µg/ml were categorized as susceptible)
K. pneumoniae; strain T1b
  Colistin resistance: + (those with MICs of > 2 µg/ml were resistant)
K. pneumoniae; strain T1b, mgrB gene truncated with IS5-like
  Colistin MIC: 128 µg/mL
E. coli; strain 3 FR
  Colistin MIC: 0.12 µg/mL
  Colistin resistance: - (strains with a colistin MICs of ≤ 2 µg/ml were categorized as susceptible)
E. coli; strain 5 FR
  Colistin MIC: 0.25 µg/mL
  Colistin resistance: - (strains with a colistin MICs of ≤ 2 µg/ml were categorized as susceptible)
E. coli; strain 10 FR
  Colistin MIC: 0.25 µg/mL
  Colistin resistance: - (strains with a colistin MICs of ≤ 2 µg/ml were categorized as susceptible)
E. coli; strain 27563
  Colistin resistance: + (those with MICs of > 2 µg/ml were resistant)
E. coli; strain 27563, resistance mechanism Unknown
  Colistin MIC: 16 µg/mL
E. coli; strain 27837
  Colistin resistance: + (those with MICs of > 2 µg/ml were resistant)
E. coli; strain 27837, resistance mechanism Unknown
  Colistin MIC: 16 µg/mL
E. coli; strain 27850
  Colistin resistance: + (those with MICs of > 2 µg/ml were resistant)
E. coli; strain 27850, resistance mechanism Unknown
  Colistin MIC: 16 µg/mL
E. coli; strain 27852
  Colistin resistance: + (those with MICs of > 2 µg/ml were resistant)
E. coli; strain 27852, resistance mechanism Unknown
  Colistin MIC: 8 µg/mL
E. coli; strain 30742
  Colistin resistance: + (those with MICs of > 2 µg/ml were resistant)
E. coli; strain 30742, resistance mechanism Unknown
  Colistin MIC: 8 µg/mL
E. coli; strain ATCC 25922
  Colistin MIC: 0.25 µg/mL
  Colistin resistance: - (strains with a colistin MICs of ≤ 2 µg/ml were categorized as susceptible)
E. coli; strain C140
  Colistin MIC: 0.12 µg/mL
  Colistin resistance: - (strains with a colistin MICs of ≤ 2 µg/ml were categorized as susceptible)
E. coli; strain Top10
  Colistin MIC: 0.12 µg/mL
  Colistin resistance: - (strains with a colistin MICs of ≤ 2 µg/ml were categorized as susceptible)
P. mirabilis
  Results of the method of the invention: +
P. stuartii; EUCAST breakpoints
  Colistin resistance: + (those with MICs of > 2 µg/ml were resistant)
P. stuartii; Natural resistance
  Colistin MIC: >128 µg/mL
H. alvei; EUCAST breakpoints
  Colistin resistance: + (those with MICs of > 2 µg/ml were resistant)
H. alvei; resistance mechanism Unknown
  Colistin MIC: 16 µg/mL
M. morganii; EUCAST breakpoints
  Colistin resistance: + (those with MICs of > 2 µg/ml were resistant)
M. morganii; Natural resistance
  Colistin MIC: >128 µg/mL
E. aerogenes
  Colistin MIC: 0.12 µg/mL
E. aerogenes; EUCAST breakpoints
  Colistin resistance: - (strains with a colistin MICs of ≤ 2 µg/ml were categorized as susceptible)
C. freundii; strain 8 FR
  Colistin MIC: 0.12 µg/mL
  Colistin resistance: - (strains with a colistin MICs of ≤ 2 µg/ml were categorized as susceptible)
C. freundii; strain C136
  Colistin MIC: 0.12 µg/mL
  Colistin resistance: - (strains with a colistin MICs of ≤ 2 µg/ml were categorized as susceptible)
K. oxytoca; EUCAST breakpoints
  Colistin resistance: + (those with MICs of > 2 µg/ml were resistant)
K. oxytoca; mgrB promotor truncated with ISKpn26-like
  Colistin MIC: 64 µg/mL
E. cloacae; strain 7 FR
  Colistin MIC: 0.12 µg/mL
  Colistin resistance: - (strains with a colistin MICs of ≤ 2 µg/ml were categorized as susceptible)
E. cloacae; strain C28
  Colistin resistance: + (those with MICs of > 2 µg/ml were resistant)
E. cloacae; strain C28, resistance mechanism Unknown
  Colistin MIC: 32 µg/mL
E. cloacae; strain C129
  Colistin MIC: 0.25 µg/mL
  Colistin resistance: - (strains with a colistin MICs of ≤ 2 µg/ml were categorized as susceptible)
E. cloacae; strain C144
  Colistin MIC: 0.25 µg/mL
  Colistin resistance: - (strains with a colistin MICs of ≤ 2 µg/ml were categorized as susceptible)
E. cloacae; strain HM
  Colistin resistance: + (those with MICs of > 2 µg/ml were resistant)
E. cloacae; strain HM, resistance mechanism Unknown
  Colistin MIC: >128 µg/mL
S. marcescens; EUCAST breakpoints
  Colistin resistance: + (those with MICs of > 2 µg/ml were resistant)
S. marcescens; Natural resistance
  Colistin MIC: >128 µg/mL
